Data taken from patent US20220008409A1, “CANCER COMBINATION THERAPY USING QUINOLINE CARBOXAMIDE DERIVATIVE” (KABUSHIKI KAISHA YAKULT HONSHA, priority 2018, published 2022).

What was measured:
MDA-MB-231 cells = assay: Combination effect of STX-1159 and mTOR inhibitor, WST-8 assay; assay type: cell-based, Human; settings: in combination with STX-1159, 48 hours
Protocol: Human breast cell line MDA-MB-231 cells or MDA-MB-468 cells (in the case of rapamycin) were inoculated on a 96-well plate to 2.5×10^3/100 μL/well or 1.0×10^3/100 μL/well, and cultured under conditions of 5% CO2 and 37° C. To the control group was added DMSO, so as to be a final concentration of 0.05%. Subsequently, the cells were cultured under conditions of 5% CO2 and 37° C. for 48 hours, and the viable cell count was then evaluated by WST-8 assay. […] The absorbance of water-soluble formazan generated by enzymatic activity of mitochondria in cells was measured at 450 nm using a microplate reader (Molecular Devices, Model: SpectraMax Plus).
Human breast cell line MDA-MB-231 cells or MDA-MB-468 cells (in the case of rapamycin) were inoculated on a 96-well plate so as to be 2.5×10^3/100 μL/well or 1.0×10^3/100 μL/well, respectively. The cells were incubated in a CO2 incubator at 37° C. After 24 hours, the supernatant was discarded, and 80 μL of a culture medium for assay was added. […] The mixture was left standing in a CO2 incubator at 37° C. for 48 hours, the supernatant was then removed, and the mixture was washed once with 100 μL of PBS(−). A WST-8 solution diluted by 10 times with the medium for assay was added at 100 μL/well, and the absorbance was measured at a wavelength of 450 nm using a plate reader. CI was calculated from the measured value.

A2058 = assay: Combination effect by median-effect method, WST-8 assay; assay type: cell-based, Human; settings: in combination with STX-1159, 72 hours
Description: (§1) NCI-H2228, NCI-H1975, SK-BR-3, Hep3B, MCF-7, Caov-3, A2058, K562 and SUP-B15 were purchased from American Type Culture Collection, SAS and HuH-7 were purchased from National Institutes of Biomedical Innovation, Health and Nutrition, and K1, FTC-133 and Ishikawa were purchased European Collection of Authenticated Cell Cultures. […] Fetal bovine serum (hereinafter, abbreviated as FBS) and MCDB 105 culture medium were purchased from Sigma Aldrich (Cat. Nos. 172012 and 117-500), and RMPI1640 culture medium, DMEM medium, Ham's F-12 medium, MEM medium and IMDM culture medium were purchased Thermo Fisher Scientific (Cat. Nos. A1049101, 11995-065, 11765-054, 11095-080 and 12440-053).
(§2) The agents were singly added one day after the cells were inoculated. […] The absorbance of water-soluble formazan generated by enzymatic activity of mitochondria in cells was measured at 450 nm using a microplate reader (Molecular Devices, Model: SpectraMax Plus). This was evaluated as the viable cell count to calculate a 50% cell growth inhibitory concentration (hereinafter, abbreviated as IC50). The reference dose of each agent was set based on IC50 (Table 3).
(§3) One day after the cells were inoculated, for single groups, STX-1159 and the agents were each added so as to be a final concentration which is ¼ times, ½ times, 1 time, 2 times or 4 times the reference dose, and for combination groups, STX-1159 and the agents were added so as to be a final concentration where STX-1159 and the agents combined were each ¼ times, ½ times, 1 time, 2 times or 4 times the reference dose. […] The fraction affected (hereinafter, abbreviated as fa) was calculated from the following expression:
(§4) fa=1−(viable cell count in agent exposure group)/(viable cell count in control group).
(§5) By a median-effect method using combination effect analyzing software CalcuSyn (HULINKS), the combination index (hereinafter, abbreviated as CI) was calculated from fa obtained when STX-1159 and the agents were exposed alone or in combination. Evaluation of the combination effect was based on grading by CI in Table 4. In calculation of CI, the average of the values from two or more experiments was employed.

[1] = Combination effect by median-effect method, summary over the cell lines of Example 1; assay type: cell-based; settings: in combination with STX-1159; summary of Table 5
Protocol: The fraction affected (hereinafter, abbreviated as fa) was calculated from the following expression: fa=1-(viable cell count in agent exposure group)/(viable cell count in control group). […] Evaluation of the combination effect was based on grading by CI in Table 4. In calculation of CI, the average of the values from two or more experiments was employed.

NCI-H2228 = assay: Combination effect by median-effect method, WST-8 assay; assay type: cell-based, Human; settings: in combination with STX-1159, 72 hours
Description: as §1, §2, §3, §4, §5

K562 = assay: as above; assay type: cell-based, Human; settings: in combination with STX-1159, 48 hours
Description: as §1
(§6) The cells were inoculated on a 96-well plate to the density shown in Table 2, and were cultured under conditions of 5% CO2 and 37° C. The agents were singly added one day after the cells were inoculated. To the control group was added DMSO, so as to be a final concentration of 0.05%. Subsequently, the cells were cultured under conditions of 5% CO2 and 37° C. for the time shown in Table 2, and the number living cells was evaluated by WST-8 assay. That is, 10 μL of a WST-8 kit solution (Kishida Chemical Co., ltd, Cat. No. 260-96162) was added to each well, and the cells were cultured under conditions of 5% CO2 and 37° C. for 1 to 2 hours. The absorbance of water-soluble formazan generated by enzymatic activity of mitochondria in cells was measured at 450 nm using a microplate reader (Molecular Devices, Model: SpectraMax Plus). This was evaluated as the viable cell count to calculate a 50% cell growth inhibitory concentration (hereinafter, abbreviated as IC50).
(§7) The cells were inoculated on a 96-well plate so as to be the density shown in Table 2, and were cultured under conditions of 5% CO2 and 37° C. One day after the cells were inoculated, for single groups, STX-1159 and the agents were each added so as to be a final concentration which is ¼ times, ½ times, 1 time, 2 times or 4 times the reference dose, and for combination groups, STX-1159 and the agents were added so as to be a final concentration where STX-1159 and the agents combined were each ¼ times, ½ times, 1 time, 2 times or 4 times the reference dose. To the control group was added DMSO, so as to be a final concentration of 0.1%. Subsequently, the cells were cultured under conditions of 5% CO2 and 37° C. for the time shown in Table 2, and the number living cells was measured by WST-8 assay. The fraction affected (hereinafter, abbreviated as fa) was calculated from the following expression:
as §4, §5

SUP-B15 = assay: as above; assay type: cell-based; settings: in combination with STX-1159, 72 hours
Description: as §1, §6
as §7, with “expression: […]” for “expression:”
By a median-effect method using combination effect analyzing software CalcuSyn (HULINKS), the combination index (hereinafter, abbreviated as CI) was calculated from fa obtained when STX-1159 and the agents were exposed alone or in combination. […]

K1 = assay: as above; assay type: cell-based, Human; settings: in combination with STX-1159, 72 hours
Description: as §1, §2, §3, §4, §5

FTC-133 = settings: in combination with STX-1159, 72 hours
Description: as §1, §6, §7, §4, §5

SMILES | CI (MDA-MB-231 cells) | Combination effect (MDA-MB-231 cells) | also measured
COc1ccc(-c2cc3c(C)nc(N)nc3n([C@H]3CC[C@H](OCCO)CC3)c2=O)cn1 [PF-04691502] | 0.73 | Moderate synergetic effect (0.7 < CI ≤ 0.85) | 
COc1ccc(-c2ccc3c(N4CCOC[C@@H]4C)nc(N4CCOC[C@@H]4C)nc3n2)cc1CO [AZD8055] | 0.36 | Synergetic effect (0.3 < CI ≤ 0.7) | 
Cc1c(CN2CCN(C(=O)[C@H](C)O)CC2)sc2c(N3CCOCC3)nc(-c3cnc(N)nc3)nc12 [GDC-0980(RG7422)] | 0.86 | Light synergetic effect (0.85 < CI ≤ 0.9) | 
CC(C)(C)c1nc(-c2cccc(NS(=O)(=O)c3c(F)cccc3F)c2F)c(-c2ccnc(N)n2)s1 [Dabrafenib, dabrafenib] |  |  | CI (A2058): 0.73; Combination effect (A2058): Moderate synergetic effect (0.7 < CI ≤ 0.85); combination effect by the median-effect method [1]: synergetic effect
c1cncc(CN2CCC(n3ncc4c(N5CCOCC5)nc(-c5ccc6[nH]ccc6c5)nc43)CC2)c1 [WAY-600] | 0.64 | Synergetic effect (0.3 < CI ≤ 0.7) | 
Oc1cccc(-c2nc(N3CCOCC3)c3oc4ncccc4c3n2)c1 [PI-103] | 0.60 | Synergetic effect (0.3 < CI ≤ 0.7) | 
C[C@@H](Oc1cc(-c2cnn(C3CCNCC3)c2)cnc1N)c1c(Cl)ccc(F)c1Cl [Crizotinib] |  |  | CI (NCI-H2228): 0.50; Combination effect (NCI-H2228): Synergetic effect (0.3 < CI ≤ 0.7); combination effect by the median-effect method [1]: synergetic effect
Cc1ccc(NC(=O)c2ccc(CN3CCN(C)CC3)cc2)cc1Nc1nccc(-c2cccnc2)n1 [Imatinib] |  |  | CI (K562): 0.83; Combination effect (K562): Moderate synergetic effect (0.7 < CI ≤ 0.85); CI (SUP-B15): 0.85; Combination effect (SUP-B15): Moderate synergetic effect (0.7 < CI ≤ 0.85); combination effect by the median-effect method [1]: synergetic effect
CN(C)C1CCN(C(=O)c2ccc(NC(=O)Nc3ccc(-c4nc(N5CCOCC5)nc(N5CCOCC5)n4)cc3)cc2)CC1 [PF-05212384(PKI-587)] | 0.63 | Synergetic effect (0.3 < CI ≤ 0.7) | 
CCC(=O)N1CCN(c2ccc(-n3c(=O)ccc4cnc5ccc(-c6cnc7ccccc7c6)cc5c43)cc2C(F)(F)F)CC1 [Torin 1] | 0.68 | Synergetic effect (0.3 < CI ≤ 0.7) | 
Cc1nc(Nc2ncc(C(=O)Nc3c(C)cccc3Cl)s2)cc(N2CCN(CCO)CC2)n1 [Dasatinib, dasatinib] |  |  | CI (K562): 0.78; Combination effect (K562): Moderate synergetic effect (0.7 < CI ≤ 0.85); CI (SUP-B15): 0.71; Combination effect (SUP-B15): Moderate synergetic effect (0.7 < CI ≤ 0.85)
COc1ccc(-c2ccc3c(N4CCOCC4)nc(N4C[C@@H](C)O[C@@H](C)C4)nc3n2)cc1CO [KU-0063794] | 0.36 | Synergetic effect (0.3 < CI ≤ 0.7) | 
Nc1ccc(-c2ccc3ncc4ccc(=O)n(-c5cccc(C(F)(F)F)c5)c4c3c2)cn1 [Torin 2] | 0.66 | Synergetic effect (0.3 < CI ≤ 0.7) | 
COc1ncc(-c2ccc3nccc(-c4ccnnc4)c3c2)cc1NS(=O)(=O)c1ccc(F)cc1F [GSK2126458] | 0.63 | Synergetic effect (0.3 < CI ≤ 0.7) | 
CC(C)n1nc(-c2cc3cc(O)ccc3[nH]2)c2c(N)ncnc21 [PP242] | 0.84 | Moderate synergetic effect (0.7 < CI ≤ 0.85) | 
COC(=O)Nc1ccc(-c2nc(N3CCOCC3)c3cnn(C4CCN(Cc5cccnc5)CC4)c3n2)cc1 [WYE-687] | 0.85 | Moderate synergetic effect (0.7 < CI ≤ 0.85) | 
CNC(=O)Nc1ccc(-c2nc(N3CC4CCC(C3)O4)c3cnn(C4CCC5(CC4)OCCO5)c3n2)cc1 [WYE-125132] | 0.40 | Synergetic effect (0.3 < CI ≤ 0.7) | 
CC(=O)Nc1cccc(-n2c(=O)n(C3CC3)c(=O)c3c(Nc4ccc(I)cc4F)n(C)c(=O)c(C)c32)c1 [Trametinib, trametinib] |  |  | CI (A2058): 0.78; Combination effect (A2058): Moderate synergetic effect (0.7 < CI ≤ 0.85)
Cc1cc(Nc2ncc(Cl)c(Nc3ccccc3S(=O)(=O)C(C)C)n2)c(OC(C)C)cc1C1CCNCC1 [Ceritinib, ceritinib] |  |  | CI (NCI-H2228): 0.34; Combination effect (NCI-H2228): Synergetic effect (0.3 < CI ≤ 0.7); combination effect by the median-effect method [1]: synergetic effect
Nc1ncnc2c1c(-c1cnc3[nH]ccc3c1)nn2C1CCCC1 [PP-121] | 0.88 | Light synergetic effect (0.85 < CI ≤ 0.9) | 
O=C1NC(=O)/C(=C/c2ccc3nccc(-c4ccncc4)c3c2)S1 [GSK1059615] | 0.64 | Synergetic effect (0.3 < CI ≤ 0.7) | 
CC(C)n1nc(-c2ccc3oc(N)nc3c2)c2c(N)ncnc21 [INK 128] | 0.56 | Synergetic effect (0.3 < CI ≤ 0.7) | 
COc1cccc2cc(-c3nc([C@H]4CC[C@H](C(=O)O)CC4)n4ncnc(N)c34)[nH]c12 [OSI-027] | 0.49 | Synergetic effect (0.3 < CI ≤ 0.7) | 
COc1cc2c(Nc3ccc(Br)cc3F)ncnc2cc1OCC1CCN(C)CC1 [Vandetanib, vandetanib] |  |  | CI (K1): 0.69; Combination effect (K1): Synergetic effect (0.3 < CI ≤ 0.7); CI (FTC-133): 0.75; Combination effect (FTC-133): Moderate synergetic effect (0.7 < CI ≤ 0.85)
CNC(=O)c1cccc(-c2ccc3c(N4CCOC[C@@H]4C)nc(N4CCOC[C@@H]4C)nc3n2)c1 [AZD2014] | 0.51 | Synergetic effect (0.3 < CI ≤ 0.7) | 
